# Results reported in US20230398130A1, “METHODS AND COMPOSITIONS FOR DIFFERENTIATING STEM CELLS” (Massachusetts Institute of Technology, priority 2020, published 2023).
# Columns and labels:
# ISC-enriched organoids [1] = experiment: Primary screen, 384-well 2.5-D organoid differentiation (ENR+CD, 6 days): basal lysozyme secretion (LYZ.NS); assay type: cell-based, murine; details: for Dose.FC.LYZ.NS: ENR+CD, 6 days, FC vs plate median; for Z.LYZ.NS: standard z score of FC; for Z.LYZ.NS (standard z score) / Dose.FC.LYZ.NS (log 2 fold change) / SSMD.LYZ.NS: primary screen; for Dose.FC.LYZ.NS (log 2 fold change): vs plate median; for SSMD.LYZ.NS: strictly standardized mean difference
# Text: (§1) High-throughput screening.
# ISC-enriched organoids [2] = experiment: Primary screen, 384-well 2.5-D organoid differentiation (ENR+CD, 6 days): carbachol-induced lysozyme secretion (LYZ.S); assay type: cell-based, murine; details: for Dose.FC.LYZ.S: ENR+CD, 6 days, FC vs plate median; for Dose.FC.LYZ.S (log 2 fold change) / Z.LYZ.S / SSMD.LYZ.S: primary screen; for Dose.FC.LYZ.S (log 2 fold change): vs plate median; for Z.LYZ.S: standard z score; for SSMD.LYZ.S: strictly standardized mean difference
# Text: as §1
# ISC-enriched organoids [3] = experiment: Primary screen, 384-well 2.5-D organoid differentiation (ENR+CD, 6 days, Target Selective Inhibitor Library, vs whole-plate median): ATP (CellTiter-Glo 3D, CTG); details: for Dose.FC.CTG: ENR+CD, 6 days, FC vs plate median; for Dose.FC.CTG (log 2 fold change): vs plate median; for SSMD.CTG: strictly standardized mean difference
# [4] = Dose 0.08 uM, standard z score of FC
# [5] = Dose 0.40 uM, standard z score of FC
# [6] = Dose 2.00 uM, standard z score of FC
# [7] = Dose 10.00 uM, standard z score of FC
# [8] = 1st of the 4 dose lines of the treatment (dose not given)
# [9] = 2nd of the 4 dose lines of the treatment (dose not given)
# [10] = 3rd of the 4 dose lines of the treatment (dose not given)
# [11] = 4th of the 4 dose lines of the treatment (dose not given)
structure (smiles),measurement,setting,value
CCn1c2ccccc2c2cc(Nc3ccnc(NCCCN4CCOCC4)n3)ccc21 [EHop-016],Dose.FC.LYZ.NS,ISC-enriched organoids [1]; Dose 0.08 uM,0.177 log 2 fold change
same,Z.LYZ.NS,ISC-enriched organoids [1]; Dose 0.08 uM,1.537
same,Dose.FC.LYZ.NS,ISC-enriched organoids [1]; Dose 0.40 uM,0.035 log 2 fold change
same,Z.LYZ.NS,ISC-enriched organoids [1]; Dose 0.40 uM,0.302
same,Dose.FC.LYZ.NS,ISC-enriched organoids [1]; Dose 2.00 uM,0.029 log 2 fold change
same,Z.LYZ.NS,ISC-enriched organoids [1]; Dose 2.00 uM,0.252
same,Dose.FC.LYZ.NS,ISC-enriched organoids [1]; Dose 10.00 uM,−0.203 log 2 fold change
same,Z.LYZ.NS,ISC-enriched organoids [1]; Dose 10.00 uM,−1.769
same,Dose.FC.LYZ.S,ISC-enriched organoids [2]; Dose 0.08 uM,0.091 log 2 fold change
same,Dose.FC.LYZ.S,ISC-enriched organoids [2]; Dose 0.40 uM,0.012 log 2 fold change
same,Dose.FC.LYZ.S,ISC-enriched organoids [2]; Dose 2.00 uM,−0.011 log 2 fold change
same,Dose.FC.LYZ.S,ISC-enriched organoids [2]; Dose 10.00 uM,−0.299 log 2 fold change
same,Dose.FC.CTG,ISC-enriched organoids [3]; Dose 0.08 uM,0.081 log 2 fold change
same,Z.CTG,ISC-enriched organoids [3]; [4],0.193
same,Dose.FC.CTG,ISC-enriched organoids [3]; Dose 0.40 uM,0.062 log 2 fold change
same,Z.CTG,ISC-enriched organoids [3]; [5],0.147
same,Dose.FC.CTG,ISC-enriched organoids [3]; Dose 2.00 uM,0.088 log 2 fold change
same,Z.CTG,ISC-enriched organoids [3]; [6],0.211
same,Dose.FC.CTG,ISC-enriched organoids [3]; Dose 10.00 uM,−0.757 log 2 fold change
same,Z.CTG,ISC-enriched organoids [3]; [7],−1.808
"CO[C@H]1C[C@@H]2CC[C@@H](C)[C@@](O)(O2)C(=O)C(=O)N2CCCC[C@H]2C(=O)O[C@H]([C@H](C)C[C@@H]2CC[C@@H](OP(C)(C)=O)[C@H](OC)C2)CC(=O)[C@H](C)/C=C(\C)[C@@H](O)[C@@H](OC)C(=O)[C@H](C)C[C@H](C)/C=C/C=C/C=C/1C [Ridaforolimus (Deforolimus, MK-8669)]",Z.LYZ.NS (standard z score),ISC-enriched organoids [1]; Dose 0.08 uM,0.041
same,Dose.FC.LYZ.NS (log 2 fold change),ISC-enriched organoids [1]; Dose 0.08 uM,0.005
same,Z.LYZ.NS (standard z score),ISC-enriched organoids [1]; Dose 0.40 uM,1.012
same,Dose.FC.LYZ.NS (log 2 fold change),ISC-enriched organoids [1]; Dose 0.40 uM,0.116
same,Z.LYZ.NS (standard z score),ISC-enriched organoids [1]; Dose 2.00 uM,0.646
same,Dose.FC.LYZ.NS (log 2 fold change),ISC-enriched organoids [1]; Dose 2.00 uM,0.074
same,Z.LYZ.NS (standard z score),ISC-enriched organoids [1]; Dose 10.00 uM,0.237
same,Dose.FC.LYZ.NS (log 2 fold change),ISC-enriched organoids [1]; Dose 10.00 uM,0.027
same,Dose.FC.LYZ.S (log 2 fold change),ISC-enriched organoids [2]; Dose 0.08 uM,0.050
same,Dose.FC.LYZ.S (log 2 fold change),ISC-enriched organoids [2]; Dose 0.40 uM,0.069
same,Dose.FC.LYZ.S (log 2 fold change),ISC-enriched organoids [2]; Dose 2.00 uM,0.019
same,Dose.FC.LYZ.S (log 2 fold change),ISC-enriched organoids [2]; Dose 10.00 uM,0.039
same,Z.CTG (standard z score),"ISC-enriched organoids [3]; Dose 0.08 uM, primary screen",1.011
same,Dose.FC.CTG (log 2 fold change),"ISC-enriched organoids [3]; Dose 0.08 uM, primary screen",0.423
same,Z.CTG (standard z score),"ISC-enriched organoids [3]; Dose 0.40 uM, primary screen",0.157
same,Dose.FC.CTG (log 2 fold change),"ISC-enriched organoids [3]; Dose 0.40 uM, primary screen",0.066
same,Z.CTG (standard z score),"ISC-enriched organoids [3]; Dose 2.00 uM, primary screen",0.659
same,Dose.FC.CTG (log 2 fold change),"ISC-enriched organoids [3]; Dose 2.00 uM, primary screen",0.276
same,Z.CTG (standard z score),"ISC-enriched organoids [3]; Dose 10.00 uM, primary screen",0.505
same,Dose.FC.CTG (log 2 fold change),"ISC-enriched organoids [3]; Dose 10.00 uM, primary screen",0.211
CCN1CCC[C@H]1CNC(=O)c1cc(S(N)(=O)=O)ccc1OC [Levosulpiride],SSMD.LYZ.NS,ISC-enriched organoids [1]; [8],0.092
same,SSMD.LYZ.NS,ISC-enriched organoids [1]; [9],0.226
same,SSMD.LYZ.NS,ISC-enriched organoids [1]; [10],0.501
same,SSMD.LYZ.NS,ISC-enriched organoids [1]; [11],−0.195
same,Z.LYZ.S,ISC-enriched organoids [2]; [8],−0.108
same,Z.LYZ.S,ISC-enriched organoids [2]; [9],0.830
same,Z.LYZ.S,ISC-enriched organoids [2]; [10],0.800
same,Z.LYZ.S,ISC-enriched organoids [2]; [11],−0.168
same,SSMD.LYZ.S,ISC-enriched organoids [2]; [8],−0.076
same,SSMD.LYZ.S,ISC-enriched organoids [2]; [9],0.774
same,SSMD.LYZ.S,ISC-enriched organoids [2]; [10],0.531
same,SSMD.LYZ.S,ISC-enriched organoids [2]; [11],−0.154
same,Z.CTG,"ISC-enriched organoids [3]; Dose 0.08 uM, primary screen, standard z score",−0.102
same,Z.CTG,"ISC-enriched organoids [3]; Dose 0.40 uM, primary screen, standard z score",−0.015
same,Z.CTG,"ISC-enriched organoids [3]; Dose 2.00 uM, primary screen, standard z score",0.074
same,Z.CTG,"ISC-enriched organoids [3]; Dose 10.00 uM, primary screen, standard z score",0.215
same,SSMD.CTG,"ISC-enriched organoids [3]; primary screen, 1st of the 4 dose lines of the treatment (dose not given)",−0.129
same,SSMD.CTG,"ISC-enriched organoids [3]; primary screen, 2nd of the 4 dose lines of the treatment (dose not given)",−0.019
same,SSMD.CTG,"ISC-enriched organoids [3]; primary screen, 3rd of the 4 dose lines of the treatment (dose not given)",0.087
same,SSMD.CTG,"ISC-enriched organoids [3]; primary screen, 4th of the 4 dose lines of the treatment (dose not given)",0.297
"COc1cc2c(cc1Cc1cccc(Cl)c1F)c(=O)c(C(=O)O)cn2[C@H](CO)C(C)C [Elvitegravir (GS-9137, JTK-303)]",Dose.FC.LYZ.NS,ISC-enriched organoids [1]; Dose 0.08 uM,−0.047 log 2 fold change
same,Z.LYZ.NS,ISC-enriched organoids [1]; Dose 0.08 uM,−0.412
same,Dose.FC.LYZ.NS,ISC-enriched organoids [1]; Dose 0.40 uM,−0.069 log 2 fold change
same,Z.LYZ.NS,ISC-enriched organoids [1]; Dose 0.40 uM,−0.598
same,Dose.FC.LYZ.NS,ISC-enriched organoids [1]; Dose 2.00 uM,−0.094 log 2 fold change
same,Z.LYZ.NS,ISC-enriched organoids [1]; Dose 2.00 uM,−0.821
same,Dose.FC.LYZ.NS,ISC-enriched organoids [1]; Dose 10.00 uM,−0.090 log 2 fold change
same,Z.LYZ.NS,ISC-enriched organoids [1]; Dose 10.00 uM,−0.782
same,Dose.FC.LYZ.S,ISC-enriched organoids [2]; Dose 0.08 uM,−0.010 log 2 fold change
same,Dose.FC.LYZ.S,ISC-enriched organoids [2]; Dose 0.40 uM,0.092 log 2 fold change
same,Dose.FC.LYZ.S,ISC-enriched organoids [2]; Dose 2.00 uM,−0.126 log 2 fold change
same,Dose.FC.LYZ.S,ISC-enriched organoids [2]; Dose 10.00 uM,−0.135 log 2 fold change
same,Dose.FC.CTG,ISC-enriched organoids [3]; Dose 0.08 uM,−0.001 log 2 fold change
same,Z.CTG,ISC-enriched organoids [3]; [4],−0.001
same,Dose.FC.CTG,ISC-enriched organoids [3]; Dose 0.40 uM,−0.040 log 2 fold change
same,Z.CTG,ISC-enriched organoids [3]; [5],−0.095
same,Dose.FC.CTG,ISC-enriched organoids [3]; Dose 2.00 uM,−0.344 log 2 fold change
same,Z.CTG,ISC-enriched organoids [3]; [6],−0.823
same,Dose.FC.CTG,ISC-enriched organoids [3]; Dose 10.00 uM,−0.737 log 2 fold change
same,Z.CTG,ISC-enriched organoids [3]; [7],−1.760
